These results are taken from patent publication US11129867B2, “Method of treating cancer cells” (priority 2017, dated 2021).

For one data set, the system named is Caspase-7. Kind of data set: Western blotting of Caspase-7. The format is cell-based, human. The following applies: Ca922, 25 μM, FIG. 11B. How it is done:
Protein lysate of Ca922 cells treated with TMR-GBP 25 μM were blotted with antibodies against Caspase-3, Caspase-7, Caspase-9 and Poly (ADP-ribose) polymerase (PARP). Representative blots are shown.
Western Blotting Analysis
Cells were harvested by trypsion or scratch and lysed in RIPA buffer (50 mM Tris-HCl, pH 7.4, 150 mM NaCl, 0.1% SDS, 0.5% Sodium deoxycholate, 1% NP-40) supplemented with 1× protease inhibitor cocktail. Sample was incubated on ice for 30 minutes and scraped every 10 minutes. Centrifuge at 13,000 rpm at 4° C. for 15 minutes, then collect supernatant for analysis. Protein concentration was determined by Bradford assay. First, 5× Bradford assay dye reagent was diluted into […], and mixture with RIPA (as standard) or samples. Concentration was obtained by spectrophotometer measurement. Equal volume of 2× laemmli buffer containing β-ME was added into protein lysate for goal concentration. Protein samples were boiled at 100° C. for 15 minutes and resolved by 10% SDS-PAGE gel or 4%-15% gradient gel. Then, transfer to PVDF membrane by 100V or 110V voltage for 1 hour. […] Washing the membrane three times with 1×PBST for every 5 minutes, protein band was detected by modified ECL (ddH2O, […] Tris pH8.0, 200 μM p-coumaric acid, 1.25 mM luminal, 0.001% H2O2) with ImageQuant LAS 4000 digital imaging system.

For data set [1], the system named is Ca922 cells. The data set is described as follows: Time-lapse live cell imaging, Ca922. The format is cell-based. The protocol:
Ca922 cells were grown on 35 mm culture dishes overnight then treated with 1% DMSO, 12.5 μM TMR, GBP, TMR-GBP respectively and monitored by time-lapse live cell microscope. Cells were exposed to indicate wavelength once every 4 hours for 100 ms and continuously for 20 hours. At least 300 cells in five different fields were counted for each experiment using microcopy that captured images under 10× magnification. Mortality rate was evaluated by counting the percentage of dead cells in the whole population. Standard deviations of three independent experiments were indicated as bars.
(§1) Time-Lapse Live Cell Imaging
(§2) In order to monitor cell morphology and the stability of TMR-GBP, cells were incubated in 35 mm dish or 4 well dish at 37° C. overnight. Replaced the culture medium with CO2-independent medium with supplement of 10% fetal bovine serum (FBS) and 1% penicillin-streptomycin, cells were treated with reagent (TMR, GBP, TMR-GBP) for the time according to the experiment and subjected to time-lapse live cell imaging. Cells were maintained on the microscope stage incubator at 37° C. Multiple-positional time-lapse imaging was performed using an automated Leica DMI6000 inverted microscope equipped with an HCX PL FL 20λ/NA0.4 objective and Andor Luca R EMCCD camera. Images of cells were taken at different interval time and analyzed by MetaMorph software.

The test system of data set [2] is Ca922 cells. Kind of data set: WST-8 cell viability assay, Ca922. Conditions: for cytotoxicity (cell viability): 48 hours. The format is cell-based, human. How it is done:
(§3) Human oral squamous cell carcinoma (OSCC) cell lines, Ca922, OSC20, OECM-1, OC3, CGHNC9, HSC3, plus A549, MDA-MB-231, MCF7, Huh7, HeLa-Kyoto, Detroit 562, H520, H2170, and 293T cells were used in this study. Ca922, CGHNC9, MDA-MB-231, MCF7, Huh7, HeLa-Kyoto, Detroit 562, and 293T cells were all cultured in high-glucose Dulbecco's Modified Eagle Medium (DMEM). OSC20 and HSC3 cells were cultured in Dulbecco's Modified of Eagle's Medium/Ham's F-12 50/50 Mix (1:1). OECM-1, A549, H520, and H2170 cells were grown in RPMI-1640 medium. All culture media were supplemented with 10% fetal bovine serum (FBS) and 1% penicillin-streptomycin. OC3 cells were cultured in 1:1 DMEM/KSFM (keratinocyte serum-free medium) with supplied supplement of Bovine pituitary extract (BPE) and epidermal growth factor (EGF) followed by instruction. All the cells in this study were maintained at 37° C. in humidified atmosphere containing 5% CO2.
(§4) WST-8 [2-(2-methoxy-4-nitrophenyl)-3-(4-nitrophenyl)-5-(2,4-disulfophenyl)-2H-tetrazolium, monosodium salt] cell viability assay
(§5) Cells were seeded into 96 well plate and incubated at 37° C. overnight. Endpoint measures of TMR-GBP or drugs were performed by water soluble tetrazolium salt (WST-8)-based colorimetric assay in triplicate which measures the metabolic conversion of WST-8 into formazan by mitochondrial dehydrogenases present in viable cells. The amount of formazan produced is proportional to the number of live cells and is expressed as cellular viability. When time was up, media were removed and supplemented with WST-8 cell viability reagent-contained cell culture medium (1:10) and incubated at 37° C. for 2 hours. Besides, three wells with WST-8-dissolved medium only (without cells) were reserved as a background control. Cell viability was measured at the absorbance of 450/655 nm wavelength by ELISA reader.
A general note: Formazan colour is commonly taken as a measure of viable cells.

The subject of the next data set is OSC20. The data set is described as follows: Time-lapse live cell imaging, OSC20. The format is cell-based, human. Conditions: OSC20, unbound TMR-GBP removed, imaged at 15 minutes interval for 16 hours, FIG. 4. The protocol:
as §1, §2

In another data set the test system is MCF7. Kind of data set: WST-8 cell viability assay, MCF7. The format is cell-based. Conditions: MCF7 (breast cancer), different concentrations, 48 hours, FIG. 3. How it is done:
as §3, §4
Cells were seeded into 96 well plate and incubated at 37° C. overnight. […] The amount of formazan produced is proportional to the number of live cells and is expressed as cellular viability. […] Cell viability was measured at the absorbance of 450/655 nm wavelength by ELISA reader.

For data set [3], the system named is Ca922 cells. Kind of data set: Annexin V staining with flow cytometry. The format is cell-based, human. Conditions: Ca922, 12.5 μM TMR-GBP, FIG. 6B. How it is done: […] Diluted 10× Binding Buffer to 1× using distilled water. Washed cells once in PBS, then once in 1× Binding Buffer. Resuspended cells in 1× Binding Buffer at 1-5×10^6/mL. Next, added 5 μL of fluorochrome-conjugated Annexin V to 100 μL of the cell suspension. Sample was incubated 10-15 minutes at room temperature. Afterwards, washed cells in 1× Binding Buffer and resuspend in 200 μL of 1× Binding Buffer. Analyzed by flow cytometry within 4 hours, storing at 2-8° C. in the dark.
In general terms: In flow cytometry, cells or beads pass a laser one at a time.

A further data set relates to OECM-1. The data set is described as follows: Time-lapse live cell imaging, OECM-1. The format is cell-based, human. Conditions: OECM-1, unbound TMR-GBP removed, imaged at 15 minutes interval for 16 hours, FIG. 4. How it is done: as §1, §2
For the next data set, the system named is H2170. The data set is described as follows: WST-8 cell viability assay, H2170. The format is cell-based. The following applies: H2170 (lung cancer), different concentrations, 48 hours, FIG. 5. How it is done: as §3, §4, §5

Where a SMILES comes first, the peptide text is derived from it. The star is where a group is joined. X1 = CN(C)c1ccc2c(-c3ccc(C(=O)*)cc3C(=O)[O-])c3ccc(=[N+](C)C)cc-3oc2c1

Regarding `CN(C)c1ccc2c(-c3ccc(C(=O)N[C@@H](CC(N)=O)C(=O)N[C@@H](Cc4ccc(O)cc4)C(=O)N[C@@H](CCCNC(=N)N)C(=O)N[C@@H](Cc4c[nH]c5ccccc45)C(=O)N[C@@H](CCCNC(=N)N)C(=O)N[C@@H](CS)C(=O)N[C@@H](CCCCN)C(=O)N[C@@H](CC(N)=O)C(=O)N[C@@H](CCC(N)=O)C(=O)N[C@@H](CC(N)=O)C(=O)O)cc3C(=O)[O-])c3ccc(=[N+](C)C)cc-3oc2c1` [TMR-GBP] (X1-NYRWRCKNQN-OH; N-terminus and C-terminus assumed), in the data set with Caspase-7, the “activation of caspase-7” value was “did not activate”. The “cytotoxicity under light stress (mortality)” value in the data set with Ca922 cells [1] (Ca922, 12.5 μM, exposed to 532 nm, 488 nm, 405 nm and brightfield, after 20 hours, FIG. 2) was “more sensitive to 532 nm light stress and displayed cytotoxic effects”. Also, the “cell death by time-lapse microscopy” value is “most cells die in 8 hours” with Ca922 cells [1] (Ca922, unbound TMR-GBP removed, imaged at 15 minutes interval for 16 hours, FIG. 4); “most cells die in 8 hours” in the data set with OSC20; “most cells die in 8 hours” in the data set on OECM-1. Besides, the “cytotoxicity (cell viability)” value in the data set with Ca922 cells [2] (Ca922 (oral cancer), different concentrations, FIG. 5) is given as “could induce cytotoxicity”; in the data set with Ca922 cells [2] (Ca922 cells, 50 μM, FIG. 1), “could induce cytotoxicity”; in the data set with H2170, “could induce cytotoxicity”. In addition, in the data set with Ca922 cells [2] (Ca922, NAC pretreated 2 hours, then TMR-GBP 0, 12.5, 25 or 50 μM for 48 hours, FIG. 8B), the “TMR-GBP induced cytotoxicity after NAC pretreatment” value is given as “partially suppressed by NAC”. Besides, the “TMR-GBP induced cytotoxicity, dependence on calcium” value with Ca922 cells [2] (Ca922, calcium chelators BAPTA-AM, EGTA pretreated 2 hours, then TMR-GBP 48 hours, FIG. 8B) was “independent of calcium release”. For the same molecule, the cell viability entry in the data set with MCF7 was “not markedly affected”. The “apoptosis by Annexin-V-FITC labeling” value with Ca922 cells [3] is on record as “positively labeled by Annexin-V-FITC”.
